Experimental data taken from PubChem BioAssay AID488810 (Sanford-Burnham Center for Chemical Genomics, 2010).
Several values for one entry are separate records, joined by “and”; a condition that tells them apart may be missing. Identical values can stand only once. Activity calls are given as the source filed them.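 How the source made its calls: active means compounds with IC50 below 20 µM; inactive means the rest.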

These compounds were tested against Type-1 angiotensin II receptor (Homo sapiens) (UniProt P30556) (assay: AGTR1 antagonism selectivity check – cell-based, CHO-K1 PathHunter, luminescence, selectivity assay for APJ antagonist project, SAR follow-up (AID 488810;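 further: agonist challenge with angiotensin II at 50 nM final near its EC80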)). Conditions: CHO-K1 AGTR1 PathHunter beta-arrestin, antagonist mode.
Sequence of Type-1 angiotensin II receptor (Homo sapiens) (P30556 whole entry, looked up): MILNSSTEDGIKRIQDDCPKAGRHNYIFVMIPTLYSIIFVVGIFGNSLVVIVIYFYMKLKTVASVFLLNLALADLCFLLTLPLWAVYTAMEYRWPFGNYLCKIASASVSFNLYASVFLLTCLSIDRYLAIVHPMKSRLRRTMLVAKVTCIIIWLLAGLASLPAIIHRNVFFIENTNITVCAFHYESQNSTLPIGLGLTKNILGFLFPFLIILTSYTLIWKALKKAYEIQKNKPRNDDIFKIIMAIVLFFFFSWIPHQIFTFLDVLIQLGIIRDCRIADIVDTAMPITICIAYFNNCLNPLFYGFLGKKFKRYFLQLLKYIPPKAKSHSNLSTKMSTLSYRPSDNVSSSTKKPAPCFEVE
In the case of `O=C(Oc1coc(CSc2ncccn2)cc1=O)c1ccc(-c2ccccc2)cc1`, the IC50 is reported as > 79 µM (inactive).
With `Cc1ccc(C(=O)Oc2coc(CSc3ncccn3)cc2=O)cc1` the IC50 was > 79 µM (inactive).
In the case of `O=C(Nc1nc2ccc(F)cc2s1)c1ccccn1`, the IC50 is reported as 5.27 µM.
With `O=C(O)CN1C(=O)C(=O)c2ccccc21` the IC50 was > 79 µM (inactive).
In the case of `COc1ccc(C2CC3(CC(C)(C)NC(=S)N3)Oc3cc(OC(C)=O)cc(C)c32)cc1` (stereo not drawn), the IC50 is reported as > 79 µM (inactive).
`O=C(Oc1coc(CSc2ncccn2)cc1=O)c1ccc(Cl)cc1` was tested, and the IC50 was > 79 µM (inactive).
For `COc1cccc(/C=C/c2ccc3cccc(O)c3n2)c1OC`, the IC50 was 14.1 µM.
In the case of `N#Cc1ccc(C(=O)Oc2coc(CSc3ncccn3)cc2=O)cc1`, the IC50 is reported as > 79 µM (inactive).
With `COc1ccc(S(=O)(=O)NNc2nc(C)cc(C)n2)cc1Br` the IC50 was “inactive”.
`O=C(Oc1coc(CSc2ncccn2)cc1=O)c1ccc(C(F)(F)F)cc1` was tested, and the IC50 was > 79 µM (inactive).
With `CCC1CCCCN1CC(=O)c1ccc(OC(F)F)cc1` (stereo not drawn) the IC50 was “inactive”.
With `Cc1ccc(C(=O)Oc2coc(CSc3nccc(C)n3)cc2=O)cc1` the IC50 was > 79 µM (inactive).
With `Cc1ccnc(SCc2cc(=O)c(OC(=O)c3ccc(C)c([N+](=O)[O-])c3)co2)n1` the IC50 was > 79 µM (inactive).
`Cc1ccnc(SCc2cc(=O)c(OC(=O)c3cc(Cl)ccc3[N+](=O)[O-])co2)n1` was tested, and the IC50 was “inactive”.
For `Cc1ccnc(SCc2cc(=O)c(OC(=O)c3ccc(C#N)cc3)co2)n1`, the IC50 was > 79 µM (inactive).
`Cc1c(C(=O)Oc2coc(CSc3ncccn3)cc2=O)cccc1[N+](=O)[O-]` was tested, and the IC50 was > 79 µM (inactive).
`O=S(=O)(NN=Cc1ccc(-c2ccccc2Cl)o1)c1ccccc1` was tested, and the IC50 was “inactive”.
`COc1ccc(C(=O)Oc2coc(CSc3nccc(C)n3)cc2=O)cc1` was tested, and the IC50 was > 79 µM (inactive).
In the case of `O=C(Oc1coc(CSc2ncccn2)cc1=O)c1ccccc1`, the IC50 is reported as > 79 µM (inactive).
For `CC1(C)CC2(CC(c3ccc(Cl)cc3)c3ccc(O)cc3O2)NC(=S)N1` (stereo not drawn), the IC50 was “inactive”.
In the case of `COc1ccc(C2CC3(CC(C)(C)NC(=S)N3)Oc3cc(O)cc(C)c32)cc1` (stereo not drawn), the IC50 is reported as > 79 µM (inactive).
In the case of `CC(C)OC(=O)CN1C(=O)C(=O)c2ccccc21`, the IC50 is reported as 4.99 µM and > 79 µM (inactive).
With `COc1ccccc1NCC(O)c1ccc(Cl)cc1` (stereo not drawn) the IC50 was > 79 µM (inactive).
For `CC(=O)Nc1ccc(NC(=O)CCC(=O)OCC(=O)c2ccc(C)c([N+](=O)[O-])c2)cc1`, the IC50 was “inactive”.
For `Cc1ccc(C(=O)Oc2coc(CSc3ncccn3)cc2=O)cc1C`, the IC50 was > 79 µM (inactive).
With `Cc1ccc(OCC(=O)OCC(=O)c2cccc([N+](=O)[O-])c2)cc1C` the IC50 was 15.8 µM.
For `CCC[N+](CC#Cc1ccccc1)(CCC)CC(=O)c1ccc(Cl)cc1`, the IC50 was “inactive”.
In the case of `C=CCSC1=NC2(CC(c3ccccc3)c3c(C)cc(O)cc3O2)CC(C)(C)N1` (stereo not drawn), the IC50 is reported as > 79 µM (inactive).
`CC(=O)c1ccc(N=C2C(=O)Nc3ccccc32)cc1` was tested, and the IC50 was 1.29 µM.
With `Cc1cc(C)nc(SCc2ccc(OC(=O)c3ccccc3)c(Cl)c2)n1` the IC50 was > 79 µM (inactive).
For `Cc1ccc(N=C2C(=O)Nc3c(C)cccc32)cc1`, the IC50 was “inactive”.
In the case of `O=c1cc(CSc2ccccc2)occ1O`, the IC50 is reported as > 79 µM (inactive).
With `Cc1cc(C)nc(SCc2cc(=O)c(OC(=O)c3ccc(S(=O)(=O)N(C)C)cc3)co2)n1` the IC50 was > 79 µM (inactive).
`Cn1c(=O)c(C(=S)NC(=O)C2CC2)c(N)n(Cc2ccccc2)c1=O` was tested, and the IC50 was “inactive”.
For `O=C(COC(=O)c1cccnc1)c1ccc(Cl)c(Cl)c1`, the IC50 was “inactive”.
In the case of `COc1ccc(C(=O)Oc2coc(CSc3ncccn3)cc2=O)cc1`, the IC50 is reported as > 79 µM (inactive).
`Cc1ccnc(SCc2cc(=O)c(OC(=O)c3cccc([N+](=O)[O-])c3)co2)n1` was tested, and the IC50 was > 79 µM (inactive).
`CCN(CC)CC(=O)c1ccc(-c2ccccc2)cc1` gave an IC50 of 10 µM.
`Cc1c(O)ccc2c1OC1(CC2c2ccccc2Cl)CC(C)(C)NC(=S)N1` (stereo not drawn) was tested, and the IC50 was > 79 µM (inactive).
In the case of `Cc1cc(C)nc(SCc2cc(=O)c(OC(=O)c3ccc(Cl)c([N+](=O)[O-])c3)co2)n1`, the IC50 is reported as > 79 µM (inactive).
For `O=C(Oc1coc(CSc2ncccn2)cc1=O)c1ccc(S(=O)(=O)N2CCCC2)cc1`, the IC50 was > 79 µM (inactive).
Compound `Cc1cc(C)nc(NNS(=O)(=O)c2ccc(Cl)cc2)n1` has an IC50 of 12.4 µM.
For `Cc1cccc(N=C2C(=O)Nc3c(Cl)cccc32)c1`, the IC50 was 3.32 µM.
With `COc1ccc(S(=O)(=O)NNc2nc(C)cc(C)n2)cc1[N+](=O)[O-]` the IC50 was “inactive”.
In the case of `CC1(C)CC2(CC(c3ccccc3Cl)c3ccc(O)cc3O2)NC(=O)N1` (stereo not drawn), the IC50 is reported as > 79 µM (inactive).
`C=CCSC1=NC2(CC(c3ccc(C)cc3)c3c(C)cc(OC(C)=O)cc3O2)CC(C)(C)N1` (stereo not drawn) was tested, and the IC50 was > 79 µM (inactive).
`CCOc1ccc(N=C2C(=O)Nc3ccc(C)c(Br)c32)cc1` showed an IC50 of 7.56 µM.
`Cc1cccc(C2CC3(CC(C)(C)NC(=S)N3)Oc3cc(O)c(Cl)cc32)c1` (stereo not drawn) was tested, and the IC50 was “inactive”.
With `CC1(C)CC2(CC(c3ccccc3Cl)c3ccc(OC(=O)c4ccccc4)cc3O2)NC(=S)N1` (stereo not drawn) the IC50 was > 79 µM (inactive).
With `Cc1cc(C)nc(SCc2cc(=O)c(OC(=O)c3cccc([N+](=O)[O-])c3C)co2)n1` the IC50 was > 79 µM (inactive).
`Cc1cccc(C2CC3(CC(C)(C)NC(=O)N3)Oc3cc(O)c(Cl)cc32)c1` (stereo not drawn) was tested, and the IC50 was > 79 µM (inactive).
With `CCN(CC)S(=O)(=O)c1ccc(C(=O)Oc2coc(CSc3ncccn3)cc2=O)cc1` the IC50 was > 79 µM (inactive).
For `Cc1ccnc(SCc2cc(=O)c(OCc3ccccc3)co2)n1`, the IC50 was > 79 µM (inactive).
